Results from patent US20250361261A1, “CYCLOPENTYL ADENOSINE DERIVATIVE AND PHARMACEUTICAL USE THEREOF” (priority 2022, published 2025).

System: CFA inflammatory pain model
Experiment: CFA inflammatory pain model, mechanical pain threshold by VonFrey electronic aesthesiometer
Format: in vivo, Sprague-Dawley (SD) rats
From the text: Experimental animals: SPF male Sprague-Dawley (SD) rats, weighing 180±30 g, obtained from Shanghai Sippe-Bk Lab Animal Co., Ltd. Experimental samples: Compounds 1, 2, and 3 and CCPA were used to prepare the corresponding pharmaceutical compositions according to the following formulation amounts and method. [table] Preparation method: Formulation amounts of compounds 1, 2, and 3 and CCPA were separately weighed out, added to a proper amount of tert-butanol/water mixed solution, and dissolved by stirring. Then formulation amounts of dimyristoylphosphatidylcholine (DMPC) and cholesterol were added and dissolved by stirring. The above solutions were made up to volume (25-40 mL), added to vials, and lyophilized in a lyophilizer for later use. When used, the lyophilizates were dissolved in normal saline to 1 mg/mL, 2 mg/mL, 4 mg/mL, and 8 mg/mL. SD rats, 6 to 8-week-old and weighing 150 g-200 g, were divided into a control group, a model control group, and an administration group. A CFA inflammatory pain model was obtained 24 h after 100 μL of complete Freund's adjuvant was injected into the soles of the left feet of the rats in the model control group and the administration group. The injection was performed at left Zusanli, and the injection volume was 100 μL. [table] Note: For the control group, 100 μL of normal saline was injected into the soles of the feet. For the model control group, 100 μL of normal saline was injected into Zusanli after the model was successfully established. A VonFrey electronic aesthesiometer was used to measure the pain threshold, and mechanical pain was used as an evaluation index. Observations of the basal pain threshold were started 1 day before the model was established and ended 14 days after the model was established. Pain thresholds before and after administration for different groups of animals were plotted using Graph Pad Prism 8.3.0 software. Based on the dose-response curve 48 h after administration, the EC50 and EC90 were obtained through fitting.

SMILES: CCCCCCCCCCCCCCC(=O)OC[C@H]1O[C@@H](n2cnc3c(NC4CCCC4)nc(Cl)nc32)[C@H](O)[C@@H]1O [Compound 1, ((2R,3S,4R,5R)-5-(2-Chloro-6-(cyclopentylamino)-9H-purin-9-yl)-3,4-dihydroxytetrahydrofuran-2-yl)methyl pentadecanoate]
- EC50 change compared to CCPA (compared to CCPA): 4 fold
- EC90 change compared to CCPA (compared to CCPA): 6 fold
- EC50 change compared to compound 2 (compared to compound 2): ~3 fold
- EC90 change compared to compound 2 (compared to compound 2): ~3 fold
